Test results: patent US20250003953A1, “Methods and Model Systems for Assessing Therapeutic Properties of Candidate Agents and Related Computer Readable Media and Systems” (The Regents of the University of California, priority 2021, published 2025)

Experiments:
Format in all cases: cell-based, human
[1] = tested on: GENEVA cell pool of cell lines; assay: GENEVA cell pool drug sensitivity by relative cell counts from single-cell RNA sequencing; details: pre/post drug treatment relative cell counts from GENEVA pools
Excerpt: This example is directed at discovery of genetic drivers of sensitivity to a drug compound by way of simultaneous inference of phenotype from a GENEVA cell pool. Long-duration growth balanced cell pools were created and subjected to drug treatment. After assignment to patient of origin and drug treatment condition using genetic demultiplexing using the method as described in Example 5 and sample hashing demultiplexing as described in Example 6, datasets were obtained with discrete numbers of cells in each drug treatment condition as evidenced in FIG. 2A,B,C,D,E,F. The relative number of viable cells remaining in each drug treatment condition for each cell type was counted and this drug sensitivity information was used as the response variable for a linear model. […]
The number of cells in each drug condition were counted according to the origin cell type. […]
fitness for cell type Ci against Drug Dx based on proportional representation was calculated as: […]
For each drug or vehicle Dx, the total number of cells was counted in each condition, the geometric mean of the total cell counts was calculated, and the total number of cells in each condition was divided by the geometric mean of the cell counts to obtain a normalization ratio. […]
For each of these fitness calculations, the relative fitness was calculated as: […]

[2] = tested on: patients derived xenografts (PDX) grown as pooled organoids; assay: Cell cycle inhibition rates from GENEVA in pooled PDX; details: PDX with known KRAS.G12C mutations; in vivo and ex vivo systems
Excerpt: Using growth-rate balanced heterogeneous cell pools adjusted for long time-course drug treatment, pools were created from four human patient-derived xenograft (PDX) models and implanted as a pooled tumor in a flank xenograft mouse model. The pooled tumors were drugged in mice by oral dosing by gavage for fourteen days with the molecule ARS-1620. After the treatment interval, tumors were harvested from mice, and single-cell RNA sequencing, genetic demultiplexing (as illustrated in Example 2), and sample hashing using barcoded antibodies was performed. Sufficient numbers of cells were observed from each PDX genetic background and drug treatment condition (FIG. 2C,D) for inference of drug phenotype and drug changes to the transcriptome. Pools from four PDX models were created for implantation for a fourteen day drug treatment in a 3D Organoid model system. […]
Cell Cycle was calculated by regressing whole transcriptome readouts and weighting according to specified genes of interest related to different cell cycle states. Cells were assigned into G1, S, and G2/M. The cell cycle ratio was then calculated as fraction of cells per population: […]
yielded a function where the slope was determined as the cell cycle inhibition rate, reflecting an alternative way to measure phenotype derived solely from transcriptome drug perturbation data over a long time course.

H2030 (KRAS.G12C) cells = assay: Seahorse assay measuring oxygen consumption; details: 2 h after treatment

C=CC(=O)N1CCN(c2ncnc3c(F)c(-c4c(O)cccc4F)c(Cl)cc23)CC1 [ARS1620]
relative sensitivity of individual cell types (most sensitive cell lines) [1]: KRAS.G12C mutant harboring | drug sensitivity by estimation of cell cycle inhibition rates [2]: shown to be sensitive to the compound (patients 877 and 233) | oxygen consumption / mitochondrial respiration (H2030 (KRAS.G12C) cells): significant difference in functional oxygen consumption
